Results on 50 compounds are retold here after patent US9365558B2 (BRISTOL-MYERS SQUIBB COMPANY, priority 2013, dated 2016).

pIC50: −log10 of the molar value.

Sequence of Human MGAT-2 (Q3SYC2 whole entry): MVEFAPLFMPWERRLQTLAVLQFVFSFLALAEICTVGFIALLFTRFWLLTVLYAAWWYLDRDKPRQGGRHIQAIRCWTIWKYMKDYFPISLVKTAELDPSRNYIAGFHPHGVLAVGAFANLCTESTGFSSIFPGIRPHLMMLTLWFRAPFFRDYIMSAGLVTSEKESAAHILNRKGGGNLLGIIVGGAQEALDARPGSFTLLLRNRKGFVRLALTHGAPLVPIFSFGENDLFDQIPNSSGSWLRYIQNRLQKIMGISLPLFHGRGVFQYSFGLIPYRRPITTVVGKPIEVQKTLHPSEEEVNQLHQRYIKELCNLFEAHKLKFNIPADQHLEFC

This test deals with Human MGAT-2 (Homo sapiens (Human), UniProt Q3SYC2). Kind of test: MGAT LCMS Assay. Type of test: biochemical. The following applies: recombinant MGAT-2 membranes expressed in Sf9 cells; 100 μM 2-oleoylglycerol, 15 μM oleoyl-Coenzyme A; LC/MS of diolein; read-out: h-MGAT LCMS IC50. The method, then:
Assay plates were run through a fully automated robotics system and shaken for 5 seconds every minute for a total 10 minutes. The reactions were then quenched with 120 μL of ice cold methanol containing 1 μg/mL 1,2-distearoyl-rac-glycerol as the internal standard. Plates were shaken for 2 minutes and spun down to remove protein precipitation. After the spin, samples were transferred to LC/MS compatible PCR plates. For LC/MS analysis, a ThermoFisher Surveyor pump, utilizing a Waters Symmetry C8, 50×2.1 mm column, was used for the chromatography of enzyme products. The buffer system consists of 0.1% formic acid in water with a mobile phase consisting 0.1% formic acid in methanol. The shallow gradient is 90-100% mobile phase in 0.2 min with a total run time of 2.3 min. The first 0.5 minutes of each injection was diverted to waste to eliminate the presence of Phosphate buffer in the enzymatic reaction. The column was run at 0.6 mL/min and a temperature of 65° C. Mass spectrometry analysis of the samples was performed on a ThermoFisher Quantum Triple quad utilizing APCI (+) as the mode of ionization. […] The ratio of Diolein to internal standard (Peak Area Ratio) is utilized to calculate IC50 values.
The pIC50 is the IC50 on a negative log10 scale, so that one unit is a factor of ten. In the case of `CCS(=O)(=O)NC(=O)C1=C(c2ccc(C)cc2)C[C@](c2ccc(OCCCCCC(F)(F)F)cc2)(C(F)(F)F)NC1=O` [Example 1, (S)—N-(Ethylsulfonyl)-2-oxo-4-(p-tolyl)-6-(4-((6,6,6-trifluorohexyl)oxy)phenyl)-6-(trifluoromethyl)-1,2,5,6-tetrahydropyridine-3-carboxamide], the pIC50 was 7.77.
Then `CCCCCCC#C[C@]1(C(F)(F)F)CC(c2ccc(C)cc2)=C(C(=O)NS(=O)(=O)C2CC2)C(=O)N1` [Example 2], with 7.70.
For the compound `Cc1ccc(C2=C(C(=O)NS(=O)(=O)C3CC3)C(=O)N[C@@](c3ncc(CCCCCCC(F)(F)F)s3)(C(F)(F)F)C2)cc1` [Example 3], the pIC50 was 8.05.
In the case of `CN(C)c1ccc(C2=C(C(=O)NS(=O)(=O)C3CC3)C(=O)N[C@@](c3ccc(OCCCCCC(F)(F)F)cc3)(C(F)(F)F)C2)cc1` [Example 4], the pIC50 is 7.77.
In the case of `CS(=O)(=O)NC(=O)C1=C(c2ccc(OC(F)F)cc2)C[C@](c2ccc(OCCCCCC(F)(F)F)cc2)(C(F)(F)F)NC1=O` [Example 5] it was 7.42.
In the case of `Cc1ccc(C2=C(C(=O)NS(=O)(=O)C3CC3)C(=O)N[C@@](c3ccc(OCCCCCC(F)(F)F)cc3F)(C(F)(F)F)C2)cc1` [Example 6] it was 8.40.
In the case of `CCc1ccc(C2=C(C(=O)NS(C)(=O)=O)C(=O)N[C@@](c3ccc(OCCCC(F)(F)F)cc3)(C(F)(F)F)C2)s1` [Example 7] it was 7.92; in that of `CCS(=O)(=O)NC(=O)C1=C(c2ccc(OC(F)F)cc2)C[C@](c2ccc(OCCCCCC(F)(F)F)cc2)(C(F)(F)F)NC1=O` [Example 8], 7.48; in that of `Cc1ccc(C2=C(C(=O)NS(C)(=O)=O)C(=O)N[C@@](c3ccc(OCCCCCC(F)(F)F)cc3)(C(F)(F)F)C2)cc1` [Example 9], 7.80.
In the case of `CCc1ccc(C2=C(C(=O)NS(=O)(=O)C3CC3)C(=O)N[C@@](c3ccc(OCCCCCC(F)(F)F)cc3)(C(F)(F)F)C2)s1` [Example 10], the pIC50 is 8.30.
In the case of `Cc1ccc(C2=C(C(=O)NS(=O)(=O)C3CC3)C(=O)N[C@@](c3ccc(OCCCCCC(F)(F)F)cc3)(C(F)(F)F)C2)cc1` [Example 11], the pIC50 is 7.92.
Turning to `CCCCCCC#C[C@]1(C(F)(F)F)CC(c2ccc(OC(F)F)cc2)=C(C(=O)NS(C)(=O)=O)C(=O)N1` [Example 12], the pIC50 was 7.62.
Then `Cc1ccc(C2=C(C(=O)NS(C)(=O)=O)C(=O)N[C@@](c3ccc(OCCCC(F)(F)F)cc3)(C(F)(F)F)C2)cc1` [Example 13], with 8.22; and `CS(=O)(=O)NC(=O)C1=C(c2ccc(OC(F)F)cc2)C[C@](c2ccc(OCCCC(F)(F)F)cc2)(C(F)(F)F)NC1=O` [Example 14], with 7.27; and `CCCCCCC#C[C@]1(C(F)(F)F)CC(c2ccc(C)cc2)=C(C(=O)NS(C)(=O)=O)C(=O)N1` [Example 15], with 8.40.
With `Cc1ccc(C2=C(C(=O)NS(=O)(=O)C3CC3)C(=O)N[C@@](c3ccc(OCCCC(F)(F)F)cc3)(C(F)(F)F)C2)cc1` [Example 16], the pIC50 is 7.74.
Then `Cc1ccc(C2=C(C(=O)NS(C)(=O)=O)C(=O)N[C@@](c3ccc(OCc4ccccc4)cc3)(C(F)(F)F)C2)cc1` [Example 17], with 7.59.
In the case of `COc1ccc(C2=C(C(=O)NS(=O)(=O)C3CC3)C(=O)N[C@@](c3ccc(OCCCCCC(F)(F)F)cc3)(C(F)(F)F)C2)cn1` [Example 18] it was 7.28; in that of `CCS(=O)(=O)NC(=O)C1=C(c2ccc(C)cc2)C[C@](c2ccc(OCCCC(F)(F)F)cc2)(C(F)(F)F)NC1=O` [Example 19], 7.77; in that of `CC(C)(C)c1ccc(C2=C(C(=O)NS(=O)(=O)C3CC3)C(=O)N[C@@](c3ccc(OCCCCCC(F)(F)F)cc3)(C(F)(F)F)C2)cc1` [Example 20], 8.40.
Then `CC(C)(C)c1ccc(C2=C(C(=O)NS(C)(=O)=O)C(=O)N[C@@](c3ccc(OCCCCCC(F)(F)F)cc3)(C(F)(F)F)C2)cc1` [Example 21], with 8.15; and `COc1ccc(C2=C(C(=O)NS(=O)(=O)C3CC3)C(=O)N[C@@](c3ccc(OCCCCCC(F)(F)F)cc3F)(C(F)(F)F)C2)cc1` [Example 22], with 8.52.
`O=C1N[C@@](c2ccc(OCCCCCC(F)(F)F)cc2)(C(F)(F)F)CC(c2ccc(CC3CC3)cc2)=C1C(=O)NS(=O)(=O)C1CC1` [Example 23]: the pIC50 was 8.40.
In the case of `Cc1ccc(C2=C(C(=O)NS(C)(=O)=O)C(=O)N[C@](C)(CCC(C)C)C2)cc1` [Example 24] it was 6.94; in that of `CN(C)c1ccc(C2=C(C(=O)NS(C)(=O)=O)C(=O)N[C@@](c3ccc(OCCCC(F)(F)F)cc3)(C(F)(F)F)C2)cc1` [Example 25], 7.62.
Then `CC(C)(C)c1ccc(C2=C(C(=O)NS(C)(=O)=O)C(=O)N[C@@](c3ccc(OCCCC(F)(F)F)cc3)(C(F)(F)F)C2)cc1` [Example 26], with 7.72; and `COc1ccc(C2=C(C(=O)NS(=O)(=O)C3CC3)C(=O)N[C@@](c3ccc(OCCCC(F)(F)F)cc3)(C(F)(F)F)C2)cc1` [Example 27], with 8.10.
In the case of `Cc1ccc(C2=C(C(=O)NS(=O)(=O)C(C)(C)C)C(=O)N[C@@](c3ccc(OCCCC(F)(F)F)cc3)(C(F)(F)F)C2)cc1` [Example 28] it was 6.46.
Take `Cc1ccc(C2=C(C(=O)NS(=O)(=O)c3ccccc3)C(=O)N[C@@](c3ccc(OCCCC(F)(F)F)cc3)(C(F)(F)F)C2)cc1` [Example 29]: the negative-log IC50 (pIC50) is 7.08.
In the case of `Cc1ccc(C2=C(C(=O)NS(=O)(=O)C(F)(F)F)C(=O)N[C@@](c3ccc(OCCCC(F)(F)F)cc3)(C(F)(F)F)C2)cc1` [Example 30] it was 8.30; in that of `Cc1ccc(C2=C(C(=O)NS(=O)(=O)N(C)C)C(=O)N[C@@](c3ccc(OCCCCCC(F)(F)F)cc3)(C(F)(F)F)C2)cc1` [Example 32], 7.60; in that of `Cc1ccc(C2=C(C(=O)NS(=O)(=O)C3CC3)C(=O)N[C@@](C#CCCCCCC(F)(F)F)(C(F)(F)F)C2)cc1` [Example 33], 7.96.
In the case of `COc1ccc(C2=C(C(=O)NS(C)(=O)=O)C(=O)N[C@@](c3ccc(OCCCC(F)(F)F)cc3)(C(F)(F)F)C2)cc1` [Example 34] it was 6.53.
`COc1ccc(C2=C(C(=O)NS(=O)(=O)N(C)C)C(=O)N[C@@](c3ccc(OCCCC(F)(F)F)cc3)(C(F)(F)F)C2)cc1` [Example 35]: the pIC50 was 6.45.
In the case of `COc1ccc(C2=C(C(=O)NS(C)(=O)=O)C(=O)N[C@@](c3ccc(OCCCCCC(F)(F)F)cc3F)(C(F)(F)F)C2)cc1` [Example 36] it was 7.28.
Then `O=C1N[C@@](c2ccc(OCCCCCC(F)(F)F)cc2)(C(F)(F)F)CC(c2ccc(OC(F)F)cc2)=C1C(=O)NS(=O)(=O)C1CC1` [Example 37], with 8.22; and `COc1ccc(C2=C(C(=O)NS(=O)(=O)C3CC3)C(=O)N[C@@](c3ccc(OCCCCCC(F)(F)F)cc3)(C(F)(F)F)C2)cc1` [Example 38], with 7.37; and `CN(C)S(=O)(=O)NC(=O)C1=C(c2ccc(OC(F)F)cc2)C[C@](c2ccc(OCCCCCC(F)(F)F)cc2)(C(F)(F)F)NC1=O` [Example 39], with 7.64.
In the case of `CCCCCCCc1cnc([C@]2(C(F)(F)F)CC(c3ccc(C)cc3)=C(C(=O)NS(=O)(=O)C3CC3)C(=O)N2)s1` [Example 40] it was 8.70; in that of `CCCCCCCc1cnc([C@@]2(C(F)(F)F)CC(c3ccc(C)cc3)=C(C(=O)NS(=O)(=O)C3CC3)C(=O)N2)s1` [Example 41], 6.63.
As for `CC(C)n1ccc(C2=C(C(=O)NS(=O)(=O)C3CC3)C(=O)N[C@@](c3ccc(OCCCC(F)(F)F)cc3F)(C(F)(F)F)C2)n1` [Example 42], the pIC50 is 8.10.
Then `CC(C)n1ccc(C2=C(C(=O)NS(C)(=O)=O)C(=O)N[C@@](c3ccc(OCCCC(F)(F)F)cc3F)(C(F)(F)F)C2)n1` [Example 43], with 7.70.
Take `CS(=O)(=O)NC(=O)C1=C(c2ccn(C3CCC3)n2)C[C@](c2ccc(OCCCC(F)(F)F)cc2F)(C(F)(F)F)NC1=O` [Example 44]: the negative logarithm of the IC50 (pIC50) was 8.15.
Then `O=C1N[C@@](c2ccc(OCCCC(F)(F)F)cc2F)(C(F)(F)F)CC(c2ccn(C3CCC3)n2)=C1C(=O)NS(=O)(=O)C1CC1` [Example 45], with 7.77.
In the case of `O=C1N[C@@](c2ccc(OCCCC(F)(F)F)cc2F)(C(F)(F)F)CC(c2ccn(C3CC3)n2)=C1C(=O)NS(=O)(=O)C1CC1` [Example 46] it was 7.09.
In the case of `CS(=O)(=O)NC(=O)C1=C(c2ccn(C3CC3)n2)C[C@](c2ccc(OCCCC(F)(F)F)cc2F)(C(F)(F)F)NC1=O` [Example 47] it was 7.80; in that of `CCn1ccc(C2=C(C(=O)NS(=O)(=O)C3CC3)C(=O)N[C@@](c3ccc(OCCCC(F)(F)F)cc3F)(C(F)(F)F)C2)n1` [Example 48], 7.33; in that of `CC(C)n1ccc(C2=C(C(=O)NS(=O)(=O)C3CC3)C(=O)N[C@@](c3ccc(CCCCC(F)(F)F)cc3F)(C(F)(F)F)C2)c1` [Example 51], 8.52.
`O=C1N[C@@](c2ccc(CCCCC(F)(F)F)cc2F)(C(F)(F)F)CC(c2ccn(CC3CC3)n2)=C1C(=O)NS(=O)(=O)C1CC1` [Example 52]: the pIC50 was 8.00.
Consider `CCn1ccc(C2=C(C(=O)NS(=O)(=O)C3CC3)C(=O)N[C@@](c3ccc(CCCCC(F)(F)F)cc3F)(C(F)(F)F)C2)n1` [Example 53], for which the pIC50 was 7.05.
